Broadly, the IC50 is the concentration needed to halve the response being measured.

The text below walks through data of paper PMC9916770, “Lycorine Carbamate Derivatives for Reversing P-glycoprotein-Mediated Multidrug Resistance in Human Colon Adenocarcinoma Cells” (International Journal of Molecular Sciences, 2023).

In one assay the test system is Colo205 cells. The experiment in a line: MTT antiproliferative assay, sensitive cells. Particulars: for IC50: Homo sapiens, COLO 205, sensitive Colo205, MTT, 72 h, mean ± SD. It counts as cell-based, human. The procedure: (§1) The human colon adenocarcinoma cell lines Colo205 doxorubicin-sensitive (CCL-222, ATCC, Manassas, VA, USA) and the resistant Colo320/MDR-LRP expressing P-gp were purchased from LGC Promochem (Teddington, UK). The MRC-5 human embryonal lung fibroblast cell line (CCL-171, ATCC) was purchased from Sigma-Aldrich (Merck KGaA, Darmstadt, Germany). The human colon adenocarcinoma cells (Colo205 and Colo320) were cultured in an RPMI 1640 medium supplemented with 10% fetal bovine serum (FBS), 2 mM L-glutamine, 1 mM Na-pyruvate, and 100 mM HEPES. The semi-adherent human colon cancer cells were detached with a trypsin-Versene (EDTA) solution for 5 min at 37 °C. The MRC-5 human embryonal lung fibroblast cells were cultured in EMEM containing 4.5 g/L of glucose and supplemented with a non-essential amino acid mixture, a selection of vitamins, and 10% FBS. The cell lines were incubated at 37 °C, 5% CO2, and 95% air atmosphere.
(§2) The antiproliferative effect of the compounds was tested in decreasing serial dilutions of compounds (starting with 100 µM, then two-fold serial dilution) on human cell lines (Colo205, Colo320, and MRC-5) in 96-well flat-bottomed microtiter plates. Firstly, the compounds were diluted in 100 µL of the medium, and then 6 × 10^3 cells (Colo205 and Colo320), in 100 µL of medium, were added to each well, excluding the medium control wells. The MRC-5 adherent cell line was seeded in the EMEM medium for at least 4 h before the assay. The two-fold serial dilutions of the compounds were made in a separate plate (100–0.19 μM) and then transferred to the plates containing the adherent corresponding cell line. Culture plates were incubated at 37 °C for 72 h, and at the end of the incubation period, 20 μL of MTT (thiazolyl blue tetrazolium bromide) solution (from a 5 mg/mL stock solution) was added to each well and incubated for an additional 4 h. Then, 100 μL of sodium dodecyl sulfate (SDS) solution (10% SDS in 0.01 M HCl) was added to each well, and the plates were further incubated at 37 °C overnight in a CO2 incubator. Cell growth was determined by measuring the optical density (OD) at 540/630 nm with a Multiscan EX ELISA reader (Thermo Labsystems, Cheshire, WA, USA). […] IC50 values and the standard deviation (SD) of triplicate experiments were calculated by using GraphPad Prism 5 software for Windows. Doxorubicin (2 mg/mL, Teva Pharmaceuticals, Budapest, Hungary) was used as a positive control and the vehicle DMSO as the negative control. (1) IC50=[ODsample−ODmedium control/ODcell control−ODmedium control]×100
(§3) The relative resistance (RR) was calculated as the ratio of the IC50 value in the resistant cancer cells and the IC50 in the sensitive cancer cell lines. The selectivity indexes (SI) were calculated as the ratio of the IC50 values in the non-tumor cells and the IC50 in the cancer cell lines. The activity of the compounds toward cancer cells is considered strongly selective if the selectivity index (SI) value is higher than 6, moderately selective if 3 < SI < 6, slightly selective if 1 < SI < 3, and non-selective if SI is lower than 1.
(In general: Tetrazolium dyes change colour on reduction, which living cells bring about.)

The next assay relates to Colo320 cells. The experiment in a line: MTT antiproliferative assay, resistant cells. Particulars: for IC50: Homo sapiens, COLO 320, resistant Colo320, MTT, 72 h, mean ± SD, read-out: IC50 Colo320 (B). It counts as cell-based, human. The procedure:
as §1, §2, §3

Another assay concerns MRC-5 cells. The experiment in a line: MTT antiproliferative assay, normal lung fibroblasts. It counts as cell-based. Particulars: Homo sapiens, normal embryonal lung fibroblasts, 72 h, mean ± SD, read-out: IC50 MCR-5 (C). The procedure:
as §1, §2, §3

`O=C(OC1C=C2CCN3Cc4cc5c(cc4C(C1O)C23)OCO5)N1CCOCC1` (centres unmarked) [Compound 3, Lycorine 2-yl morpholine-4-carboxylate]: the IC50 in the assay on Colo205 cells, in the assay on Colo320 cells and with MRC-5 cells was more than 100 µM in each case.
With `COc1ccc(CCNC(=O)OC2C=C3CCN4Cc5cc6c(cc5C(C2OC(=O)NCCc2ccc(OC)cc2)C34)OCO6)cc1` (centres unmarked) [Compound 4, Lycorine 1,2-diyl bis [(4-methoxyphenethyl)carbamate]], the concentration for half-maximal inhibition (IC50) with Colo205 cells, in the assay on Colo320 cells and in the assay on MRC-5 cells was more than 100 µM in each case.
Regarding `Cc1ccc(CNC(=O)OC2C=C3CCN4Cc5cc6c(cc5C(C2O)C34)OCO6)cc1` (centres unmarked) [Compound 6, Lycorine 2-yl (4-methylbenzyl)carbamate], the IC50 in the assay on Colo205 cells, in the assay with Colo320 cells and with MRC-5 cells was more than 100 µM in each case.
As to `O=C(NCc1ccc2c(c1)OCO2)OC1C=C2CCN3Cc4cc5c(cc4C(C1OC(=O)NCc1ccc4c(c1)OCO4)C23)OCO5` (centres unmarked) [Compound 7, Lycorine 1,2-diyl bis[(piperonyl)carbamate]], the IC50 in the assay with Colo205 cells, in the assay with Colo320 cells and in the assay with MRC-5 cells was more than 100 µM each time.
With `O=C(NCc1ccc2c(c1)OCO2)OC1C=C2CCN3Cc4cc5c(cc4C(C1O)C23)OCO5` (centres unmarked) [Compound 8, Lycorine 2-yl (piperonyl)carbamate], the IC50 in the assay with Colo205 cells, with Colo320 cells and in the assay on MRC-5 cells was more than 100 µM in each case.
`O=C(NCCc1ccccc1)O[C@H]1C=C2CCN3Cc4cc5c(cc4[C@H]([C@@H]1O)[C@@H]23)OCO5` [Compound 10, lycorine 2-yl phenethylcarbamate]: the IC50 in the assay on Colo205 cells, in the assay on Colo320 cells and with MRC-5 cells was more than 100 µM in each case.
`COc1ccc(CNC(=O)OC2C=C3CCN4Cc5cc6c(cc5C(C2O)C34)OCO6)cc1` (centres unmarked) [Compound 11, Lycorine 2-yl (4-methoxylbenzyl)carbamate]: the IC50 in the assay on Colo205 cells, in the assay on Colo320 cells and in the assay with MRC-5 cells was more than 100 µM throughout.
In the case of `CN(Cc1ccccc1)C(=O)OC1C=C2CCN3Cc4cc5c(cc4C(C1O)C23)OCO5` (centres unmarked) [Compound 12, Lycorine 2-yl benzyl(methyl)carbamate], the half-inhibitory concentration (IC50) with Colo205 cells, with Colo320 cells and in the assay on MRC-5 cells was more than 100 µM throughout.
On to `O=C(OC1C=C2CCN3Cc4cc5c(cc4C(C1OC(=O)N1CCCC1)C23)OCO5)N1CCCC1` (centres unmarked) [Compound 14, Lycorine 1,2-diyl bis(pyrrolidine-1-carboxylate)], for which the IC50 with Colo205 cells, with Colo320 cells and with MRC-5 cells was more than 100 µM throughout.
Turning to `O=C(OC1C=C2CCN3Cc4cc5c(cc4C(C1O)C23)OCO5)N1CCCC1` (centres unmarked) [Compound 15, Lycorine 2-yl pyrrolidine-1-carboxylate], the IC50 in the assay with Colo205 cells, in the assay with Colo320 cells and with MRC-5 cells was more than 100 µM throughout.
In the case of `O=C(OC1C=C2CCN3Cc4cc5c(cc4C(C1O)C23)OCO5)N1CCCCC1` (centres unmarked) [Compound 17, Lycorine 2-yl piperidine-1-carboxylate], the IC50 with Colo205 cells, in the assay with Colo320 cells and in the assay on MRC-5 cells was more than 100 µM throughout.
With `CC(C)(C)c1ccc(CNC(=O)OC2C=C3CCN4Cc5cc6c(cc5C(C2OC(=O)NCc2ccc(C(C)(C)C)cc2)C34)OCO6)cc1` (centres unmarked) [Compound 18, Lycorine 1,2-diyl bis[(4-(tert-butyl)benzyl)carbamate]], the IC50 in the assay on Colo205 cells, in the assay on Colo320 cells and with MRC-5 cells was more than 100 µM in each case.
Regarding `O=C(NCc1ccccc1F)OC1C=C2CCN3Cc4cc5c(cc4C(C1OC(=O)NCc1ccccc1F)C23)OCO5` (centres unmarked) [Compound 20, Lycorine 1,2-diyl bis[(2-fluorobenzyl)carbamate]], the IC50 with Colo205 cells, in the assay on Colo320 cells and in the assay with MRC-5 cells was more than 100 µM in each case.
As to `O=C(NCc1ccccc1F)OC1C=C2CCN3Cc4cc5c(cc4C(C1O)C23)OCO5` (centres unmarked) [Compound 21, Lycorine 2-yl (2-fluorobenzyl)carbamate], the IC50 in the assay on Colo205 cells, in the assay on Colo320 cells and in the assay with MRC-5 cells was more than 100 µM in each case.
Turning to `O=C(NCc1cccc(C(F)(F)F)c1)O[C@H]1[C@H]2c3cc4c(cc3CN3CCC(=C[C@@H]1OC(=O)NCc1cccc(C(F)(F)F)c1)[C@H]23)OCO4` [Compound 22, Lycorine 1,2-diyl bis[(3-(trifluoromethyl)benzyl)carbamate]], the IC50 in the assay with Colo205 cells, in the assay on Colo320 cells and in the assay with MRC-5 cells was more than 100 µM throughout.
With `O=C(NCCc1ccc(F)cc1)OC1C=C2CCN3Cc4cc5c(cc4C(C1OC(=O)NCCc1ccc(F)cc1)C23)OCO5` (centres unmarked) [Compound 23, Lycorine 1,2-diyl bis[(4-fluorophenethyl) carbamate]], the IC50 in the assay on Colo205 cells was more than 100 µM; in the assay with Colo320 cells it was more than 100 µM; with MRC-5 cells, 3.79 ± 0.21 µM. Also, the “SI (selectivity index) C/A” value in the assay on Colo205 cells (IC50 MRC-5 / IC50 Colo205) is less than 0.037. Besides, the “SI (selectivity index) C/B” value in the assay with Colo320 cells (IC50 MRC-5 / IC50 Colo320) is on record as less than 0.037.
For the compound `O=C(NCCc1ccc(F)cc1)OC1C=C2CCN3Cc4cc5c(cc4C(C1O)C23)OCO5` (centres unmarked) [Compound 24, Lycorine 2-yl (4-fluorophenethyl)carbamate], the IC50 with Colo205 cells, with Colo320 cells and with MRC-5 cells was more than 100 µM throughout.
As for `O=C(NCc1ccc(F)cc1)OC1C=C2CCN3Cc4cc5c(cc4C(C1OC(=O)NCc1ccc(F)cc1)C23)OCO5` (centres unmarked) [Compound 27, Lycorine 1,2-diyl bis[(4-fluorobenzyl)carbamate]], the IC50 with Colo205 cells, in the assay with Colo320 cells and in the assay on MRC-5 cells was more than 100 µM throughout.
For the compound `O=C(NCc1ccc(F)cc1)OC1C=C2CCN3Cc4cc5c(cc4C(C1O)C23)OCO5` (centres unmarked) [Compound 28, Lycorine 2-yl (4-fluorobenzyl)carbamate], the IC50 in the assay on Colo205 cells, with Colo320 cells and with MRC-5 cells was more than 100 µM each time.
`CCCNC(=O)OC1C=C2CCN3Cc4cc5c(cc4C(C1OC(=O)NCCC)C23)OCO5` (centres unmarked) [Compound 29, Lycorine 1,2-diyl bis(propylcarbamate)]: the IC50 in the assay on Colo205 cells, in the assay with Colo320 cells and in the assay with MRC-5 cells was more than 100 µM throughout.
`CCCNC(=O)OC1C=C2CCN3Cc4cc5c(cc4C(C1O)C23)OCO5` (centres unmarked) [Compound 30, Lycorine 2-yl propylcarbamate]: the IC50 in the assay with Colo205 cells, in the assay with Colo320 cells and with MRC-5 cells was more than 100 µM throughout.
`O=C(NCc1ccccc1)OC1C=C2CCN3Cc4cc5c(cc4C(C1OC(=O)NCc1ccccc1)C23)OCO5` (centres unmarked) [Compound 32, Lycorine 1,2-diyl bis(benzylcarbamate)]: the IC50 is more than 100 µM with Colo205 cells, more than 100 µM with Colo320 cells and 71.9 ± 5.38 µM in the assay on MRC-5 cells.
